Test results published in patent publication US20080139650A1, “Fungicidally Active Polymer Dispersions And Use Thereof” (CELANESE EMULSIONS GMBH, priority 2004, published 2008).

Test system: spores of Aspergillus niger and Aspergillus versicolor
Assay: ISO 846 Method B: determination of the fungistatic activity of films, complete nutrient medium with carbon source
Assay type: cell-based
Conditions: summary of ISO 846 loading tests (methods A and B)
Procedure: Commercially conventional dispersions based on poly(vinyl alcohol)-stabilized poly(dibutyl maleinate-co-vinyl acetate) were, where necessary, set to the required pH using 10% strength sodium hydroxide solution and subsequently finished with fungicide. In addition, to the dispersion was added either a 1% strength ethanolic solution of the fungicide or an aqueous suspension which had been prepared by weighing out exactly 500 mg of fungicide into a 50 ml measuring flask and subsequently making up to 50 ml with deionized water to the calibration mark. After addition, the substance was distributed well in the dispersion and approximately 200 μm thick films were produced using a drawing frame with wet application of 400 μm.
The action of these films on microorganisms was determined using the method ISO 846.
The samples were applied to a complete nutrient medium (with carbon source) and inoculated with a spore suspension of various fungi. […] Method B is intended to reflect the situation of a surface contamination of the sample in practice (such as dirt or organic deposits).
The inoculum in all the determinations was performed using spores of Aspergillus niger and Aspergillus versicolor.
The samples, after expiry of the incubation period of 28 days, were assessed in methods A and B using the following rating key in accordance with ISO 846 (a, b=individual results of duplicate determination).

## Oc1ccc(/C=C/c2cc(O)cc(O)c2)cc1 [trans-resveratrol, trans-3,5,4′-trihydroxystilbene]
  fungicidal activity in polymer dispersions made into films: exhibits fungicidal activity
